Experimental data from ChEMBL document CHEMBL4321799, “Development of the First Low Nanomolar Liver Receptor Homolog-1 Agonist through Structure-guided Design” (J Med Chem, 2019).
The source made the active and inactive calls. The calls are words filed in the database; no cut-off is given here.

What was measured:
[1] = target: Steroidogenic factor 1 (Homo sapiens) (UniProt Q13285); test: Agonist activity at recombinant full length SF1 (unknown origin) transfected in human HeLa cells incubated for 24 hrs by renilla luciferase reporter gene assay; assay type: cell-based
[2] = target: Nuclear receptor subfamily 5 group A member 2 (Homo sapiens) (UniProt O00482)
[3] = tested on: Nuclear receptor subfamily 5 group A member 2 (Homo sapiens), O00482 [H390A]; test: Activation of human full length LRH1 H390A mutant transfected in human HeLa cells at 10 uM incubated for 24 hrs by renilla luciferase reporter gene assay; assay type: cell-based
[4] = tested on: Nuclear receptor subfamily 5 group A member 2 (Homo sapiens), O00482 [M345L]; test: Activation of human full length LRH1 M345L mutant transfected in human HeLa cells at 10 uM incubated for 24 hrs by renilla luciferase reporter gene assay; assay type: cell-based
[5] = tested on: Nuclear receptor subfamily 5 group A member 2 (Homo sapiens), O00482 [T352V]; test: Activation of human full length LRH1 T352V mutant transfected in human HeLa cells at 10 uM incubated for 24 hrs by renilla luciferase reporter gene assay; assay type: cell-based
Mus musculus [6] = species on record: Mus musculus; test: Effect on Cyp11b1 mRNA expression in LRH1 knock-out mouse enteroids at 1 uM pretreated with TNF-alpha followed incubation with compound for overnight by real-time PCR analysis; assay type: functional
Mus musculus [7] = species on record: Mus musculus; test: Effect on Cyp11a1 mRNA expression in LRH1 knock-out mouse enteroids at 1 uM pretreated with TNF-alpha followed incubation with compound for overnight by real-time PCR analysis; assay type: functional

Chain of Nuclear receptor subfamily 5 group A member 2 (Homo sapiens) (O00482 whole entry): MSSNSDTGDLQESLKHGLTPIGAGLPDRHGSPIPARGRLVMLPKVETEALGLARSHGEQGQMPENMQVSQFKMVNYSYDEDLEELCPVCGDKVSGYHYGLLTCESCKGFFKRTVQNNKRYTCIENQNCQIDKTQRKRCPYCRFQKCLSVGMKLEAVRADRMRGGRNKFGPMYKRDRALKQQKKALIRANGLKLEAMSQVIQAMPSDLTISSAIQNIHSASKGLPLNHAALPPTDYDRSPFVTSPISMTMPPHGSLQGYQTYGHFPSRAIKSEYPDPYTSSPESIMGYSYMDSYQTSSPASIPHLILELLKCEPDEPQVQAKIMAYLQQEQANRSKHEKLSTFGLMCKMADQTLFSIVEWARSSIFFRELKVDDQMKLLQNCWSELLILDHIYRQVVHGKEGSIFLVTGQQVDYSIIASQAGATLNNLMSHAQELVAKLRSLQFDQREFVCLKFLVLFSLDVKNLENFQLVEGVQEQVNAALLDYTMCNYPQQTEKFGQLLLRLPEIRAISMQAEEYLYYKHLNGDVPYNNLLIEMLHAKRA
Chain of Steroidogenic factor 1 (Homo sapiens) (Q13285 whole entry): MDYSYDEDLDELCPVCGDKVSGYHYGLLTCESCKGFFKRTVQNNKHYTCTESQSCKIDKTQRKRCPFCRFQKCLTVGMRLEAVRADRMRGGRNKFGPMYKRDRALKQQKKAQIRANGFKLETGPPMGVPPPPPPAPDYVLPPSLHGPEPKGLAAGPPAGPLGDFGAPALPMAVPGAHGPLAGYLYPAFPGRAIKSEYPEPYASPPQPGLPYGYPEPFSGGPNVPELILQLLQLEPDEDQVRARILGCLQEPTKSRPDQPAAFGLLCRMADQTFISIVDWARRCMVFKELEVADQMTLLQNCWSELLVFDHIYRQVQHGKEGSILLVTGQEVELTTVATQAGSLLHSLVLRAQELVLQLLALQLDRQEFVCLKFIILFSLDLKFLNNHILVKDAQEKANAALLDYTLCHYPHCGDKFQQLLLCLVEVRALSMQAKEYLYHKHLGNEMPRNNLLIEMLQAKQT
Chain of Nuclear receptor subfamily 5 group A member 2 (Homo sapiens), O00482 [H390A] (O00482 whole entry H390A): as the sequence (O00482 whole entry) above, with H390A counted along it
Chain of Nuclear receptor subfamily 5 group A member 2 (Homo sapiens), O00482 [T352V] (O00482 whole entry T352V): as the sequence (O00482 whole entry) above, with T352V counted along it
Chain of Nuclear receptor subfamily 5 group A member 2 (Homo sapiens), O00482 [M345L] (O00482 whole entry M345L): as the sequence (O00482 whole entry) above, with M345L counted along it

Compound	Activity [1]	ΔTm [2]	other results
C=C(c1ccccc1)[C@@]12CC[C@@H](O)[C@@H]1CC(CCCCCC)=C2c1ccccc1	Active	–	–
C=C(c1ccccc1)[C@@]12CC[C@H](OS(=O)(=O)NC(N)=O)[C@@H]1CC(CCCCCC)=C2c1ccccc1 (racemic)	–	3 to 8 °C	–
C=C(c1ccccc1)[C@@]12CC[C@H](n3ccnn3)[C@@H]1CC(CCCCCC)=C2c1ccccc1 (racemic)	–	3 to 8 °C	–

Continued, in another order:

Activity [1]	ΔTm [2]	Compound	other results
–	3 to 8 °C	C=C(c1ccccc1)[C@@]12CC[C@@H](OS(N)(=O)=O)[C@@H]1CC(CCCCCC)=C2c1ccccc1 (racemic)	–
inactive	–	C=C(c1ccccc1)[C@@]12CC[C@H](NC(C)=O)[C@@H]1CC(CCCCCC)=C2c1ccccc1 (racemic)	Activity [3]: inactive; Activity [4]: Active; Activity [5]: Active
Active	–	C=C(c1ccccc1)[C@@]12CC[C@H](NS(N)(=O)=O)[C@@H]1CC(CCCCCC)=C2c1ccccc1 (racemic)	Activity (Mus musculus [6]): inactive; Activity (Mus musculus [7]): inactive
Active	3 to 8 °C	C=C(c1ccccc1)[C@@]12CC[C@H](OS(N)(=O)=O)[C@@H]1CC(CCCCCC)=C2c1ccccc1 (racemic)	–
